From US6908908B2, “Biologically active 4H-benzo [1,4] oxazin-3-ones” (Ortho-McNeil Pharmaceutical, Inc., priority 2000, dated 2005)

molecular target: T1, PPAR γ (Homo sapiens, UniProt P37231); test: aP2 Assay for Agonist (induction of aP2 mRNA production); assay type: cell-based; conditions: Table 1; fold increase over vehicle in induction of aP2 mRNA production; as to Agonist Intrinsic Activity: test concentration or dose not given here
T1 construct: Following the challenge of the preadipocytes, cells may be lysed with lysis buffer; endogenous in cells; host or cells: preadipocytes
T1 sequence (P37231 1-505): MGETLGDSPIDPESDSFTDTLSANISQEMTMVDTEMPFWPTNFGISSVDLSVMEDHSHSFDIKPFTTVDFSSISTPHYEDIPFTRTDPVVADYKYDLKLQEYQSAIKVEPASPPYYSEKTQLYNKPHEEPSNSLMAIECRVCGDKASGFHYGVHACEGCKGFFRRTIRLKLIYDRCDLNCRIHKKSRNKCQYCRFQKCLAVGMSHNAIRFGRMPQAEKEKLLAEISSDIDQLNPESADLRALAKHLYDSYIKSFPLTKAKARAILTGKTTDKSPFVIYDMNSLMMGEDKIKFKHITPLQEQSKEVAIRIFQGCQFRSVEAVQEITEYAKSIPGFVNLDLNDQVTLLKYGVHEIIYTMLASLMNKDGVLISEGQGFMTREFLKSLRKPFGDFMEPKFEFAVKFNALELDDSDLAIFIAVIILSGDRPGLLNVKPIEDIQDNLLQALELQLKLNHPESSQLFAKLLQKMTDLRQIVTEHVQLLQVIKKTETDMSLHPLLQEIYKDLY

Agonist Intrinsic Activity | SMILES
7.2 | COC(=O)Cc1ccccc1OCCC1Oc2ccccc2N(CC(=O)OC)C1=O (stereo not drawn) [Compound 22]
7.1 | CCCCCCCCCN1C(=O)C(CCOc2ccccc2CC(=O)O)Oc2ccccc21 (stereo not drawn) [Compound 55]
29.1 | O=C(O)Cc1ccccc1OCCC1Oc2ccccc2N(CCCCCF)C1=O (stereo not drawn) [Compound 113]
1.0 | COC(=O)c1ccccc1OCCC1Oc2ccccc2N(Cc2ccccc2)C1=O (stereo not drawn) [Compound 4]
40.9 | CCOCCCN1C(=O)C(CCOc2ccccc2CC(=O)O)Oc2ccccc21 (stereo not drawn) [Compound 115]
37.9 | CC(F)(F)CCCCN1C(=O)C(CCOc2ccccc2CC(=O)O)Oc2ccccc21 (stereo not drawn) [Compound 87]
0.8 | COC(=O)Cc1cccc(OCCC2Oc3ccccc3N(Cc3cccc(C(F)(F)F)c3)C2=O)c1 (stereo not drawn) [Compound 33]
28 | NC(=O)CCCCCN1C(=O)C(CCOc2ccccc2CC(=O)O)Oc2ccccc21 (stereo not drawn) [Compound 98, Benzeneacetic acid, 2-[2-[4-(6-amino-6-oxohexyl)-3,4-dihydro-3-oxo-2H-1,4-benzoxazin-2-yl]ethoxy]-]
4.0 | CCCSCCN1C(=O)C(CCOc2ccccc2CC(=O)O)Oc2ccccc21 (stereo not drawn) [Compound 116]
11.1 | O=C([O-])CCc1cccc(OCCC2Oc3ccccc3N(Cc3cccc(C(F)(F)F)c3)C2=O)c1.[Na+] (stereo not drawn) [Compound 36]
16.13 | CCCCCCN1C(=O)C(CCOc2ccc(SC(C)(C)C(=O)O)cc2)Oc2ccccc21 (stereo not drawn) [Compound 121]
57.9 | O=C(O)Cc1ccccc1OCCC1Oc2ccccc2N(CCCC2CCCC2)C1=O (stereo not drawn) [Compound 70]
10.4 | O=C([O-])Cc1cccc(OCCC2Oc3ccccc3N(Cc3cccc(C(F)(F)F)c3)C2=O)c1.[Na+] (stereo not drawn) [Compound 34]
44.8 | O=C(O)Cc1ccccc1OCCC1Oc2ccccc2N(CCCCCCF)C1=O (single isomer, unassigned) [Compound 92]
6.7 | O=C(O)Cc1ccccc1OCCC1Oc2ccccc2N(Cc2cc(C(F)(F)F)cc(C(F)(F)F)c2)C1=O (stereo not drawn) [Compound 40]
32 | CC(C)CCCCN1C(=O)C(CCOc2ccccc2CC(=O)O)Oc2ccccc21 (stereo not drawn) [Compound 72]
1.9 | CCCSCCN1C(=O)C(CCOc2ccccc2C(F)(F)F)Oc2ccccc21 (stereo not drawn) [Compound 21]
53.1 | O=C(O)Cc1ccccc1OCCC1Oc2ccccc2N(CCCCCCF)C1=O (single isomer, unassigned) [Compound 93]
9.9 | CCCCCCCCCCN1C(=O)C(CCOc2ccccc2CC(=O)O)Oc2ccccc21 (stereo not drawn) [Compound 57]
0.9 | COC(=O)c1ccccc1OCCC1Oc2ccccc2N(Cc2ccc(C)cc2)C1=O (stereo not drawn) [Compound 1]
11.1 | CC(=O)CCCCN1C(=O)C(CCOc2ccccc2CC(=O)O)Oc2ccccc21 (stereo not drawn) [Compound 78, Benzeneacetic acid, 2-[2-[3,4-dihydro-3-oxo-4-(5-oxohexyl)-2H-1,4-benzoxazin-2-yl]ethoxy]-]

Agonist Intrinsic Activity | SMILES
1.0 | CCCCCCCCCCN1C(=O)C(CCOc2ccccc2CC(=O)OC)Oc2ccccc21 (stereo not drawn) [Compound 56]
26.4 | CCCCCCCCN1C(=O)C(CCOc2ccccc2CC(=O)O)Oc2ccccc21 (stereo not drawn) [Compound 53]
7.2 | COC(=O)Cc1ccccc1OCCC1Oc2ccccc2N(CC(=O)OC)C1=O (stereo not drawn) [Compound 45]
2.1 | O=C(O)CCc1ccccc1OCCC1Oc2ccccc2N(Cc2cc(C(F)(F)F)cc(C(F)(F)F)c2)C1=O (stereo not drawn) [Compound 42]
43.2 | O=C(O)Cc1ccccc1OCCC1Oc2ccccc2N(CCC2CCCC2)C1=O (stereo not drawn) [Compound 68]
26.5 | CC(C)(C#N)CCCCN1C(=O)C(CCOc2ccccc2CC(=O)O)Oc2ccccc21 (stereo not drawn) [Compound 104]
1.2 | Cc1cccc(CN2C(=O)C(CCOc3ccccc3C(F)(F)F)Oc3ccccc32)c1 (stereo not drawn) [Compound 2]
0.8 | COC(=O)Cc1ccccc1OCCC1Oc2ccccc2N(Cc2cccc(C(F)(F)F)c2)C1=O (stereo not drawn) [Compound 27]
3.5 | CC(C)(O)CCCCN1C(=O)C(CCOc2ccccc2CC(=O)O)Oc2ccccc21 (stereo not drawn) [Compound 84]
27.5 | CC(C)(CN)CCCCN1C(=O)C(CCOc2ccccc2CC(=O)O)Oc2ccccc21 (stereo not drawn) [Compound 96]
6.2 | CCCCCCCN1C(=O)C(CCOc2ccccc2CC(=O)OC)Oc2ccccc21 (stereo not drawn) [Compound 50]
40.83 | CCCNC(=O)CN1C(=O)C(CCOc2ccccc2CC(=O)O)Oc2ccccc21 (stereo not drawn) [Compound 122]
5.6 | O=C([O-])CCc1ccccc1OCCC1Oc2ccccc2N(Cc2cccc(C(F)(F)F)c2)C1=O.[Na+] (stereo not drawn) [Compound 30]
0.8 | O=C(O)Cc1ccccc1OCCC1Oc2ccccc2N(CC(=O)O)C1=O (stereo not drawn) [Compound 23]
28.6 | CCCCCCCN1C(=O)C(CCOc2ccccc2CC(=O)O)Oc2ccccc21 (stereo not drawn) [Compound 51]
0.7 | COC(=O)c1ccccc1OCCC1Oc2ccccc2N(Cc2ccc(Cl)cc2)C1=O (stereo not drawn) [Compound 5]
74.5 | O=C(O)Cc1ccccc1OCCC1Oc2ccccc2N(CCCCCCCO)C1=O (stereo not drawn) [Compound 112]
37.3 | CC(=O)CCCCCN1C(=O)C(CCOc2ccccc2CC(=O)O)Oc2ccccc21 (stereo not drawn) [Compound 108]
0.8 | COC(=O)CCc1ccccc1OCCC1Oc2ccccc2N(Cc2cccc(C(F)(F)F)c2)C1=O (stereo not drawn) [Compound 29]
22.0 | CC(C)(C)CCCCN1C(=O)C(CCOc2ccccc2CC(=O)O)Oc2ccccc21 (stereo not drawn) [Compound 74]
2.6 | CCCCCCN1C(=O)C(CCOc2ccccc2C(=O)C(=O)O)Oc2ccccc21 (stereo not drawn) [Compound 13, Benzeneacetic acid, 2-[2-(4-hexyl-3,4-dihydro-3-oxo-2H-1,4-benzoxazin-2-yl)ethoxy]-a-oxo-]

Agonist Intrinsic Activity | SMILES
4.00 | CNC(=O)CCCN1C(=O)C(CCOc2ccccc2CC(=O)O)Oc2ccccc21 (stereo not drawn) [Compound 124]
7.2 | CCCCCCN1C(=O)C(CCOc2ccccc2CP(=O)(O)O)Oc2ccccc21 (stereo not drawn) [Compound 15, Phosphonic acid, [[2-[2-(4-hexyl-3,4-dihydro-3-oxo-2H-1,4-benzoxazin-2-yl)ethoxy]phenyl]methyl]-]
4.1 | CC(C)(CCCCN1C(=O)C(CCOc2ccccc2CC(=O)O)Oc2ccccc21)C(=O)O (stereo not drawn) [Compound 102]
8.2 | O=C([O-])CCCc1ccccc1OCCC1Oc2ccccc2N(Cc2cccc(C(F)(F)F)c2)C1=O.[Na+] (stereo not drawn) [Compound 32]
28.7 | CC(CCN1C(=O)C(CCOc2ccccc2CC(=O)O)Oc2ccccc21)CC(C)(C)C (stereo not drawn) [Compound 76]
2.8 | CON=C(C)CCCCN1C(=O)C(CCOc2ccccc2CC(=O)O)Oc2ccccc21 (stereo not drawn) [Compound 80]
6.8 | O=C(O)Cc1cccc(OCCC2Oc3ccccc3N(Cc3cc(C(F)(F)F)cc(C(F)(F)F)c3)C2=O)c1 (stereo not drawn) [Compound 44]
50.7 | COCCCCN1C(=O)C(CCOc2ccccc2CC(=O)O)Oc2ccccc21 (stereo not drawn) [Compound 114]
3.0 | O=C(O)CCCCCN1C(=O)C(CCOc2ccccc2CC(=O)O)Oc2ccccc21 (stereo not drawn) [Compound 101, 2H-1,4-Benzoxazine-4-hexanoic acid, 2-[2-[2-(carboxymethyl)phenoxy]ethyl]-3,4-dihydro-3-oxo-]
10.78 | CC(=O)NCCCCCCN1C(=O)C(CCOc2ccccc2CC(=O)O)Oc2ccccc21 (stereo not drawn) [Compound 125]
3.6 | O=C(O)Cc1ccccc1OCCC1Oc2ccccc2N(CCCCCO)C1=O (stereo not drawn) [Compound 64]
24 | CC(=O)NC(C)CCCCN1C(=O)C(CCOc2ccccc2CC(=O)O)Oc2ccccc21 (stereo not drawn) [Compound 85]
1.4 | CCOCCCN1C(=O)C(CCOc2ccccc2C(F)(F)F)Oc2ccccc21 (stereo not drawn) [Compound 19]
42.0 | CC(F)(F)CCCCN1C(=O)C(CCOc2ccccc2CC(=O)O)Oc2ccccc21 (single isomer, unassigned) [Compound 89]
38.7 | O=C(O)Cc1ccccc1OCCC1Oc2ccccc2N(Cc2ccc(C(F)(F)F)cc2)C1=O (stereo not drawn) [Compound 38]
21.5 | O=C([O-])Cc1ccccc1OCCC1Oc2ccccc2N(Cc2cccc(C(F)(F)F)c2)C1=O.[Na+] (stereo not drawn) [Compound 28]
1.3 | COC(=O)Cc1ccccc1OCCC1Oc2ccccc2N(CCOC(C)=O)C1=O (stereo not drawn) [Compound 47]
45.9 | CCCOCCN1C(=O)C(CCOc2ccccc2CC(=O)O)Oc2ccccc21 (stereo not drawn) [Compound 117]
1.1 | CCCCCCCCCCN1C(=O)C(CCOc2ccccc2C(F)(F)F)Oc2ccccc21 (stereo not drawn) [Compound 17]

SMILES | Agonist Intrinsic Activity
COC(=O)Cc1ccccc1OCCC1Oc2ccccc2N(c2ccc(Cl)c(Cl)c2)C1=O (stereo not drawn) [Compound 118] | 0.9

same assay, conditions: Table 3 (stereoisomers); fold increase over vehicle in induction of aP2 mRNA production

PPAR γ Agonist Intrinsic Activity | SMILES
36.4 | CC1(CCOc2ccccc2CC(=O)O)Oc2ccccc2N(CCCCCCF)C1=O (stereo not drawn) [Compound 131]
